The target in data set [1] is Sodium-dependent serotonin transporter (Rattus norvegicus, UniProt P31652). In words: Binding affinity to rat SERT.
Data set [2] addresses Sodium-dependent serotonin transporter (Homo sapiens, UniProt P31645). Put plainly: Binding affinity to human SERT.
Data set [3] concerns the target T1, Histamine H3 receptor (Homo sapiens, UniProt Q9Y5N1). Put plainly: Displacement of N-[3H]alpha-methylhistamine from human histamine H3 receptor expressed in SK-N-MC cells. It is filed as cell-based.
The target of data set [4] is T1, Histamine H3 receptor. In words: Antagonist activity at human histamine H3 receptor expressed in SK-N-MC cells assessed as effect on cAMP accumulation. Format: functional, cell-based. To be noted: read-out: pA2 (converted). A general note: Cyclic AMP is a second messenger, typically raised through Gs and lowered through Gi signalling.
Data set [5] is described as follows: Cmax in rat plasma at 10 mg/kg, po after 1 hr. It is filed as ADME, organism-based. The arrangement: dose 10 mg/kg, route oral.
Data set [6] can be described thus: Cmax in rat brain at 10 mg/kg, po after 6 hrs. It is filed as ADME, organism-based. The arrangement: dose 10 mg/kg, route oral.
Data set [7] can be described thus: Drug level in rat brain at 10 mg/kg, po after 24 hrs. It is filed as ADME, organism-based. The arrangement: dose 10 mg/kg, route oral. The settings on record: read-out: Drug uptake.

From ChEMBL document CHEMBL1139156, “Novel naphthyridines are histamine H3 antagonists and serotonin reuptake transporter inhibitors” (Bioorg Med Chem Lett, 2007) come the findings set out here.

pKi: −log10 of the molar value.

Chain of Sodium-dependent serotonin transporter (Homo sapiens, UniProt P31645) (P31645 whole entry): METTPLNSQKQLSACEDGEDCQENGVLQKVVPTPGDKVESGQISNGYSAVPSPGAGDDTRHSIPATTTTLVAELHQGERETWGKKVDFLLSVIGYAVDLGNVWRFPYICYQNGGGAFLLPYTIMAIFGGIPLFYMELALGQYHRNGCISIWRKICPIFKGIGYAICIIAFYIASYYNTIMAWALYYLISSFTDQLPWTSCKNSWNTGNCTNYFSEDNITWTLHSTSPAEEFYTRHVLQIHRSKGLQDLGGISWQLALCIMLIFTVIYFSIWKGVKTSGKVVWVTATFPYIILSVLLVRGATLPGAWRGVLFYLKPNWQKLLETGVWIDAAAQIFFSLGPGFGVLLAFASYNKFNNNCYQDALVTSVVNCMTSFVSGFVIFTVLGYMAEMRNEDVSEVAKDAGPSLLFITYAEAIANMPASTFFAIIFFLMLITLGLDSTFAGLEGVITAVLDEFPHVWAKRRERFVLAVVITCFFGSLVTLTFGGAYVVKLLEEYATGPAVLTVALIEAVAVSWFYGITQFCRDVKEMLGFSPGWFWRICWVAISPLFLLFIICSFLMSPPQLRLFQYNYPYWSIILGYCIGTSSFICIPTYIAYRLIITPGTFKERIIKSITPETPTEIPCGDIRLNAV
T1 sequence (Q9Y5N1 whole entry): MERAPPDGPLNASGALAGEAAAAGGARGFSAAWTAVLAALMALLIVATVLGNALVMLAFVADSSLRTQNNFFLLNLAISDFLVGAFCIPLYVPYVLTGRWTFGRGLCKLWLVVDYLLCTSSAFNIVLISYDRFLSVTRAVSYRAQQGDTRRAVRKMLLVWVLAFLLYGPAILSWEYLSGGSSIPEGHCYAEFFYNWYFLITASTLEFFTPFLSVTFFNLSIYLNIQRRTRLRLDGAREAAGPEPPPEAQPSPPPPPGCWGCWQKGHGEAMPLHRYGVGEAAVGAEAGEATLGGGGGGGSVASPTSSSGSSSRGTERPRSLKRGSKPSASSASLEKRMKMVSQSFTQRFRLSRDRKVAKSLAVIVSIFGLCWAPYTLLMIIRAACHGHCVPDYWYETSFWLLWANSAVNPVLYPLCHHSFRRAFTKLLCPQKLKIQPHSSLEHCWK
Chain of Sodium-dependent serotonin transporter (Rattus norvegicus, UniProt P31652) (P31652 whole entry): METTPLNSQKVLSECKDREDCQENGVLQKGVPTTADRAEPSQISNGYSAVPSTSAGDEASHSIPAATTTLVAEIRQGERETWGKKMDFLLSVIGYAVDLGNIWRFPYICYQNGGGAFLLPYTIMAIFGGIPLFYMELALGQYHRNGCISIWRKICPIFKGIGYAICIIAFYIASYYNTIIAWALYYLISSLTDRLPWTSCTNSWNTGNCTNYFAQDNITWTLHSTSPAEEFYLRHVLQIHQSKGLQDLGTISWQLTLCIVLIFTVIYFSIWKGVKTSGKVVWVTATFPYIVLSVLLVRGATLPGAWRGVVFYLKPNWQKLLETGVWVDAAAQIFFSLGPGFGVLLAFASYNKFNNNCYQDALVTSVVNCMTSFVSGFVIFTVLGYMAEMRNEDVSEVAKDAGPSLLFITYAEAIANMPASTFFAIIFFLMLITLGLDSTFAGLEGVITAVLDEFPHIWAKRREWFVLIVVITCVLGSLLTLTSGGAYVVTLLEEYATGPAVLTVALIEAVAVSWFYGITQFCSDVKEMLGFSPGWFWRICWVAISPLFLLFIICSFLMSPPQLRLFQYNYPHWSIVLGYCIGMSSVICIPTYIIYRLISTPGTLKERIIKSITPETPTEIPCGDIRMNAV

In general, pKi refers to −log10 of the Ki, conventionally taken in molar units. Read a low pKi as a high Ki. Regarding `CC(C)N1CCC(COc2cc3c(cn2)C(c2ccc(Cl)c(Cl)c2)CNC3)CC1` (centres undefined), the pKi in data set [1] was 7.74; in data set [2], 7.43; in data set [3] it was 7.89.
Turning to `COc1cccc(C2CN(C)Cc3cc(OCCCN4CCCCC4)ncc32)c1` (centres undefined), the Kb in data set [4] was 25.7 nM.
The same measure, in the same setting: the result for `COc1ccc(C2CNCc3cc(OCC4CCN(C(C)C)CC4)ncc32)cc1` (centres undefined) reads 3.55 nM; that for `CCN(CC)CCCOc1cc2c(cn1)C(c1ccccc1)CN(C)C2` (centres undefined), 0.661 nM.
Take `CN1Cc2cc(OCCCN3CCCCC3)ncc2C(c2ccc(Cl)c(F)c2)C1` (centres undefined): the pKi in data set [1] is 7.59; in data set [2] it was 6.83; in data set [3], 8.15. Further, the Kb in data set [4] was 16.6 nM.
As to `COc1ccc(C2CNCc3cc(OCCCN4CCCCC4)ncc32)cc1` (centres undefined), in data set [1], the pKi was 7.34. Further, the Kb in data set [4] was 5.89 nM.
Take `COc1ccc(C2CN(C)Cc3cc(OCCCN4CCOCC4)ncc32)cc1` (centres undefined): in data set [4], the Kb was 11.7 nM.
Still for that read-out and setting: the result for `Clc1ccc(C2CNCc3cc(OCCCN4CCCCC4)ncc32)cc1` (centres undefined) reads 3.89 nM; that for `CN1Cc2cc(OCCCN3CCCCC3)ncc2C(c2ccccc2F)C1` (centres undefined), 1.05 nM.
`Clc1ccc(C2CNCc3cc(OCCCN4CCCCC4)ncc32)cc1Cl` (centres undefined): the pKi in data set [2] was 7.49. In addition, the Kb in data set [4] is 11.2 nM.
For `Clc1ccccc1C1CNCc2cc(OCCCN3CCCCC3)ncc21` (centres undefined), in data set [4], the Kb was 1.05 nM.
The same measure, in the same setting: under `c1ccc(C2CNCc3cc(OCCCN4CCCCC4)ncc32)cc1` (centres undefined) stands 0.724 nM.
As a reminder, the Cmax is the peak of the concentration-time curve. Regarding `c1ccc(C2CNCc3cc(OCCCN4CCOCC4)ncc32)cc1` (centres undefined), the pKi in data set [2] is 5.32; in data set [3], 7.89. Moreover, the peak concentration (Cmax) came out at 220 nM in data set [5] and 5560 nM in data set [6]. In addition, the concentration at 24 h in data set [7] was above 600 nM.
In the case of `CN1Cc2cc(OCCCN3CCCCC3)ncc2C(c2cccc(Cl)c2)C1` (centres undefined), the Kb in data set [4] was 9.77 nM.
On the same count and under the same terms, the result for `CN1Cc2cc(OCCCN3CCCCC3)ncc2C(c2ccccc2)C1` (centres undefined) reads 21.4 nM; that for `CN1Cc2cc(OCCCN3CCCCC3)ncc2C(c2ccc(Cl)c(Cl)c2)C1` (centres undefined), 18.2 nM.
Still for that read-out and setting: the result for `CCN(CC)CCCOc1cc2c(cn1)C(c1ccc(Cl)c(Cl)c1)CNC2` (centres undefined) reads 14.1 nM; that for `CN1Cc2cc(OCCCN3CCCCC3)ncc2C(c2ccc(F)cc2)C1` (centres undefined), 3.55 nM.
